Test results taken from patent publication US20090012152A1, “Use of Tetramic Acid Derivatives for Controlling Insects from the Genus of the Plane Lice (Sternorrhyncha)” (Bayer CropScience Aktiengesellschaft, priority 2005, published 2009).

Key:
Type in all cases: in vivo
[1] = test system: Dysaphis plantaginea; assay: Example 41: apple trees treated against Dysaphis plantaginea (Henderson and Tilton); details: live animals on shoots, % a.i.: imidacloprid 0.007, I-9 0.0144, I-2 0.0144; for Effect (%) 7 d: 7 d after treatment; for Effect (%) 14 d: 14 d after treatment
Protocol: In three replications, three about 8-year-old apple trees of the cultivar “Golden Delicious” are treated eradicatively against Dysaphis plantaginea and Aphis pomi. The application is carried out using a motor-operated barrow-mounted sprayer. Here, the active compounds Example (I-9) (240 SC) and Example (I-2) (240 SC) in the stated amount are tested against the commercial standard imidacloprid (200 SL), at the stated application rate. The application rate is 1200 l of water/ha.
Evaluation is carried out before and also 7 d and 14 d after the treatment by counting the live animals on the shoots. The efficacy is then calculated by calculating the effect on the population in percent according to Henderson and Tilton.

[2] = test system: Aphis fabae; assay: Example 51: broad beans treated against Aphis fabae; details: nymphs on leaves, g a.i./ha: Pirimor 250, I-9 36, I-2 36, I-4 42; for Kill (%) 7 d: 7 d after treatment; for Kill (%) 15 d: 15 d after treatment
Protocol: In three replications, plots of a size of 10 m^2 with broad beans of the cultivar “Fruhe Weisskeimige” are treated against Aphis fabae. The application is carried out using a knapsack sprayer operated with pressurized air. Here, the active compounds Example (I-9) (240 SC), Example (I-2) (240 SC) and Example (I-4) (240 SC), in a tank mix with 0.2% of rapeseed oil methyl ester (500 EW), and the commercial standard Pirimor (50 WG) are tested at the stated application rates. Application is carried out once. The application rate is 500 l of water/ha.
Evaluation is carried out 7 and 15 days after the treatment by rating the kill of the nymphs on the leaves.

[3] = test system: Macrosiphum euphorbiae; assay: Example 43: aubergines treated against Macrosiphum euphorbiae; details: nymphs on leaves, % a.i.: imidacloprid 0.014, I-9, I-2, I-11 0.0144; for Kill (%) 7 d: 7 d after second treatment; for Kill (%) 14 d: 14 d after second treatment
Protocol: In three replications, plots of a size of 10 m^2 with aubergines of the cultivar “F 100” are treated against Macrosiphum euphorbiae. The application is carried out using a knapsack sprayer operated with pressurized air. Here, the active compounds Example (I-9) (60 SC), Example (I-2) (60 SC) and Example (I-11) (60 SC) and the commercial standard imidacloprid (70 WG) are tested at the stated application rates. Three applications are carried out, at an interval of 7 or 8 days. The application rate is 1000 l of water/ha.
Evaluation is carried out 7 and 14 days after the second treatment by rating the kill of the nymphs on the leaves.

[4] = test system: Trialeurodes vaporariorum; assay: Example 34: tomatoes treated against Trialeurodes vaporariorum; details: larvae on leaves, % a.i.: imidacloprid 0.015, I-9 0.0144, I-4 0.0144
Protocol: In three replications, plots of a size of 5 m^2 with tomatoes of the cultivar “Rio Grande” are treated against Trialeurodes vaporariorum. The application is carried out using a motor-operated knapsack apparatus. Here, the active compounds Example (I-9) (240 SC) and Example (I-4) (240 SC) and the commercial standard imidacloprid (200 SL) are tested at the stated application rates. The application rate is 1000 l of water/ha. Three applications are carried out, at an interval of 11 or 10 days.
Evaluation is in each case carried out 7 or 10 days after each treatment, by rating the kill of the larvae on the leaves.

[5] = test system: Phorodon humuli; assay: Example 44: hop plants treated against hop aphid; details: on leaves, % a.i.: imidacloprid 0.0053, I-9 0.0036, I-4 0.0084; for Kill (%) 6 d: 6 d after treatment; for Kill (%) 46 d: 46 d after treatment
Protocol: In two replications, about 4-year-old hop plants of the cultivar “Spalter” are treated against the hop aphid Phorodon humuli. The application is carried out using a knapsack sprayer operated with pressurized air. Here, the active compounds Example (I-9) (240 SC) and Example (I-4) (240 SC), in a tank mix with 0.1% a.i. of rapeseed oil methyl ester (500 EW), and the standard imidacloprid are applied at the stated application rates. The application rate is 1200 l of water/ha.
The first evaluation is carried out 6 days and the last evaluation 46 days after the treatment by rating the kill of the animals on the leaves.

[6] = test system: Viteus vitifolii; assay: Example 4: vines treated against Viteus vitifolii; details: 60 days after last of three treatments, on roots, imidacloprid drip irrigation 560 g/ha, I-4 0.0168%, I-9 0.0144% leaf spray
Protocol: In four replications, three in each case about 12-year-old vines of the cultivar “Auvemat” are treated against Viteus vitifolii. As commercial standard, imidacloprid is used at the recommended application rate by drip irrigation. The application of the active compounds is by spray application to the leaves using a knapsack operated with pressurized air. Here, the active compounds Example (I-4) (240 SC) and Example (I-9) (240 SC) are applied in a tank mix with 0.1% a.i. of rapeseed oil methyl ester (500 EW) at the stated amount. There are three applications on day 1, 2 and 15. The application rate is 1776 l of water/ha.
Evaluation is carried out 60 days after the last treatment by rating the kill on the roots in percent.

[7] = test system: Aphis pomi; assay: Example 40: apple trees treated against Aphis pomi; details: population on shoots, % a.i.: imidacloprid 0.007, I-9 0.0144, I-4 0.0144; for Kill (%) 14 d: 14 d after treatment; for Kill (%) 21 d: 21 d after treatment
Protocol: In three replications, three about 22-year-old apple trees of the cultivar “Golden Delicious” are treated eradicatively against Dysaphis plantaginea and Aphis pomi. The application is carried out using a motor-operated barrow-mounted sprayer. Here, the active compounds Example (I-9) (240 SC) and Example (I-4) (240 SC) in the stated amount are tested against the commercial standard imidacloprid (200 SL), at the stated application rate. The application rate is 1200 l of water/ha.
Evaluation is carried out 14 d and 21 d after the treatment by rating the kill of the population on the shoots.

[8] = test system: Bemisia tabaci; assay: Example 33: cucumbers treated against Bemisia tabaci; details: nymphs on leaves, % a.i.: imidacloprid 0.144, I-4 0.084; for Kill (%) 7 d: 7 d after first of two treatments; for Kill (%) 11 d: 11 d after first of two treatments; for Kill (%) 21 d: 21 d after first of two treatments
Protocol: In four replications, plots of a size of 26 m^2 with cucumbers of the cultivar “Beta alpha” are treated against Bemisia tabaci. The application is carried out using a knapsack sprayer operated with pressurized air. Here, the active compound Example (I-4) (240 SC), in a tank mix with 0.1% a.i. of rapeseed oil methyl ester (500 EW), and the commercial standard imidacloprid (200 SC) are tested at the stated application rates. Two applications are carried out, at an interval of 10 days. The application rate is 1000 l of water/ha.
Evaluation is carried out 7, 11 and 21 days after the first treatment by rating the kill of the animals (nymphs) on leaves.

## CCOC(=O)OC1=C(c2cc(C)ccc2Br)C(=O)NC12CCC(OC)CC2 (stereo not shown) [Example (I-2)]
[1]
  Effect (%) 7 d: 92.3%
  Effect (%) 14 d: 99.2%
[2]
  Kill (%) 7 d: 98.6%
  Kill (%) 15 d: 100%
[3]
  Kill (%) 7 d: 99%
  Kill (%) 14 d: 91%

## CCOC(=O)OC1=C(c2cc(C)ccc2C)C(=O)NC12CCC(OC)CC2 (stereo not shown) [Example (I-4)]
[4]
  Kill (%) 7 d after the 2nd treatment: 100%
  Kill (%) 10 d after the 1st treatment: 81.9%
  Kill (%) 10 d after the 3rd treatment: 94.3%
[2]
  Kill (%) 7 d: 100%
  Kill (%) 15 d: 100%
[5]
  Kill (%) 6 d: 95%
  Kill (%) 46 d: 98.7%
[6]
  Kill (%): 55%
[7]
  Kill (%) 14 d: 96.9%
  Kill (%) 21 d: 98.8%
[8]
  Kill (%) 7 d: 75%
  Kill (%) 11 d: 87%
  Kill (%) 21 d: 90%

## O=[N+]([O-])NC1=NCCN1Cc1ccc(Cl)nc1 [imidacloprid, reference compound]
[1]
  Effect (%) 7 d: 99.6%
  Effect (%) 14 d: 99.5%
[4]
  Kill (%) 7 d after the 2nd treatment: 88.4%
  Kill (%) 10 d after the 1st treatment: 53.5%
  Kill (%) 10 d after the 3rd treatment: 67.5%
[5]
  Kill (%) 6 d: 99%
  Kill (%) 46 d: 97.6%
[6]
  Kill (%): 26%
[7]
  Kill (%) 14 d: 93.6%
  Kill (%) 21 d: 92.5%
[3]
  Kill (%) 7 d: 100%
  Kill (%) 14 d: 100%
[8]
  Kill (%) 7 d: 89%
  Kill (%) 11 d: 96%
  Kill (%) 21 d: 96%
